In publication PMC5218480 (PLoS ONE, 2017):

System: MV-4-11 cells
Experiment: Gene expression microarray analysis (Affymetrix PrimeView) and GSEA
Format: cell-based, human
Set-up: RFU PODN (11730768_x_at) / Fold change /veh PODN (11730768_x_at) / RFU LINC00158 (11744669_a_at) / Fold change /veh LINC00158 (11744669_a_at) / RFU DUSP10 (11751237_a_at) / Fold change /veh DUSP10 (11751237_a_at) / RFU ID3 (11757404_x_at) / Fold change /veh ID3 (11757404_x_at) / RFU PLEKHG5 (11737974_s_at) / Fold change /veh PLEKHG5 (11737974_s_at) / RFU LRRC4B (11730491_at) / Fold change /veh LRRC4B (11730491_at) / RFU GIMAP4 (11747438_a_at) / Fold change /veh GIMAP4 (11747438_a_at) / RFU KRT8 (11758183_x_at) / Fold change /veh KRT8 (11758183_x_at) / RFU CNN1 (11734310_a_at) / Fold change /veh CNN1 (11734310_a_at) / RFU VPS37D (11726825_at) / Fold change /veh VPS37D (11726825_at) / RFU C10orf10 (11716522_x_at) / Fold change /veh C10orf10 (11716522_x_at) / RFU KIR2DL2 /// KIR2DL4 /// KIR2DL5A /// KIR2DL5B /// KIR2DS1 /// KIR2DS2 /// KIR2DS3 /// KIR2DS4 /// KIR3DL3 /// KIR3DL3 /// KIR3DS1 (11738374_at) / Fold change /veh KIR2DL2 /// KIR2DL4 /// KIR2DL5A /// KIR2DL5B /// KIR2DS1 /// KIR2DS2 /// KIR2DS3 /// KIR2DS4 /// KIR3DL3 /// KIR3DL3 /// KIR3DS1 (11738374_at) / RFU C1QL1 (11718748_at) / Fold change /veh C1QL1 (11718748_at) / RFU TMPRSS4 (11747572_a_at) / Fold change /veh TMPRSS4 (11747572_a_at) / RFU HAMP (11756126_x_at) / Fold change /veh HAMP (11756126_x_at) / RFU RNFT2 (11725882_a_at) / Fold change /veh RNFT2 (11725882_a_at) / RFU NR4A2 (11747474_a_at) / Fold change /veh NR4A2 (11747474_a_at) / RFU ABCC12 (11746883_a_at) / Fold change /veh ABCC12 (11746883_a_at) / RFU TMEM136 (11760407_x_at) / Fold change /veh TMEM136 (11760407_x_at) / RFU CLDN22 /// WWC2 (11732394_at) / Fold change /veh CLDN22 /// WWC2 (11732394_at) / RFU HLA-DPB1 (11760878_x_at) / Fold change /veh HLA-DPB1 (11760878_x_at) / RFU SPINT1 (11716480_a_at) / Fold change /veh SPINT1 (11716480_a_at) / RFU GAP43 (11754022_s_at) / Fold change /veh GAP43 (11754022_s_at) / RFU A4GNT (11735810_at) / Fold change /veh A4GNT (11735810_at) / RFU PRB3 (11715151_x_at) / Fold change /veh PRB3 (11715151_x_at) / RFU TUBB4B (11761932_at) / Fold change /veh TUBB4B (11761932_at) / RFU CAPN14 (11732068_a_at) / Fold change /veh CAPN14 (11732068_a_at) / RFU TMCC2 (11721928_a_at) / Fold change /veh TMCC2 (11721928_a_at) / RFU IRGQ (11745062_a_at) / Fold change /veh IRGQ (11745062_a_at) / RFU FAM174B (11720279_a_at) / Fold change /veh FAM174B (11720279_a_at) / RFU TMPRSS4 (11748680_a_at) / Fold change /veh TMPRSS4 (11748680_a_at) / RFU FAM212B (11763350_a_at) / Fold change /veh FAM212B (11763350_a_at) / RFU PLEKHG5 (11743358_a_at) / Fold change /veh PLEKHG5 (11743358_a_at) / RFU ZSCAN30 (11745921_a_at) / Fold change /veh ZSCAN30 (11745921_a_at) / RFU CMKLR1 (11741424_a_at) / Fold change /veh CMKLR1 (11741424_a_at) / RFU LOC101060620 /// MAPK8IP1 (11723275_at) / Fold change /veh LOC101060620 /// MAPK8IP1 (11723275_at) / RFU SPTSSB (11747773_x_at) / Fold change /veh SPTSSB (11747773_x_at) / RFU PRSS12 (11739890_at) / Fold change /veh PRSS12 (11739890_at) / RFU BIN1 (11741810_x_at) / Fold change /veh BIN1 (11741810_x_at) / RFU WNT11 (11732464_a_at) / Fold change /veh WNT11 (11732464_a_at) / RFU C10orf10 (11716521_a_at) / Fold change /veh C10orf10 (11716521_a_at) / RFU C5orf56 (11738089_at) / Fold change /veh C5orf56 (11738089_at) / RFU CYB561 (11721691_x_at) / Fold change /veh CYB561 (11721691_x_at) / RFU ANKRD19P (11752326_a_at) / Fold change /veh ANKRD19P (11752326_a_at) / RFU OR2T12 /// OR2T33 /// OR2T8 (11738714_s_at) / Fold change /veh OR2T12 /// OR2T33 /// OR2T8 (11738714_s_at) / RFU VCAN (11748164_a_at) / Fold change /veh VCAN (11748164_a_at) / RFU JSRP1 (11732532_at) / Fold change /veh JSRP1 (11732532_at) / RFU KRTAP10-11 (11738290_x_at) / Fold change /veh KRTAP10-11 (11738290_x_at) / RFU MYO3A (11730013_a_at) / Fold change /veh MYO3A (11730013_a_at) / RFU EBF3 (11725865_a_at) / Fold change /veh EBF3 (11725865_a_at) / RFU CAMK2N1 (11719241_x_at) / Fold change /veh CAMK2N1 (11719241_x_at) / RFU C5orf56 (11738088_a_at) / Fold change /veh C5orf56 (11738088_a_at) / RFU OLFML3 (11715873_a_at) / Fold change /veh OLFML3 (11715873_a_at) / RFU LOC100653217 /// NTM (11731650_a_at) / Fold change /veh LOC100653217 /// NTM (11731650_a_at) / RFU MAPK11 (11762145_a_at) / Fold change /veh MAPK11 (11762145_a_at) / RFU FIZ1 (11724087_x_at) / Fold change /veh FIZ1 (11724087_x_at) / RFU OASL (11726364_x_at) / Fold change /veh OASL (11726364_x_at) / RFU SOX15 (11748057_x_at) / Fold change /veh SOX15 (11748057_x_at) / RFU CD79A (11719716_a_at) / Fold change /veh CD79A (11719716_a_at) / RFU HIST1H1D (11736915_at) / Fold change /veh HIST1H1D (11736915_at) / RFU CASKIN2 (11723855_a_at) / Fold change /veh CASKIN2 (11723855_a_at) / RFU LOC730098 (11760151_x_at) / Fold change /veh LOC730098 (11760151_x_at) / RFU OR4N2 (11742367_at) / Fold change /veh OR4N2 (11742367_at) / RFU PRRT2 (11749266_a_at) / Fold change /veh PRRT2 (11749266_a_at) / RFU SNX32 (11753110_a_at) / Fold change /veh SNX32 (11753110_a_at) / RFU CDHR5 (11726645_a_at) / Fold change /veh CDHR5 (11726645_a_at) / RFU RCAN1 (11760418_a_at) / Fold change /veh RCAN1 (11760418_a_at) / RFU FAM167A (11723789_a_at) / Fold change /veh FAM167A (11723789_a_at) / RFU FAM26E (11764081_at) / Fold change /veh FAM26E (11764081_at) / RFU ISYNA1 (11749810_s_at) / Fold change /veh ISYNA1 (11749810_s_at) / RFU ACY1 (11761880_at) / Fold change /veh ACY1 (11761880_at) / RFU 11764098_at / Fold change /veh 11764098_at / RFU SAMD14 (11745864_x_at) / Fold change /veh SAMD14 (11745864_x_at) / RFU NPB (11741838_a_at) / Fold change /veh NPB (11741838_a_at) / RFU TMPRSS6 (11731388_a_at) / Fold change /veh TMPRSS6 (11731388_a_at) / RFU KRTAP10-2 (11738614_at) / Fold change /veh KRTAP10-2 (11738614_at) / RFU ARHGAP8 /// PRR5-ARHGAP8 (11727945_x_at) / Fold change /veh ARHGAP8 /// PRR5-ARHGAP8 (11727945_x_at) / RFU KRTAP5-7 /// NADSYN1 (11734609_at) / Fold change /veh KRTAP5-7 /// NADSYN1 (11734609_at) / RFU RASL12 (11751679_a_at) / Fold change /veh RASL12 (11751679_a_at) / RFU CDKN2B (11736163_a_at) / Fold change /veh CDKN2B (11736163_a_at) / RFU PRF1 (11729649_at) / Fold change /veh PRF1 (11729649_at) / RFU, ZNF638 /// ZNF638-IT1 / Fold change vs veh, ZNF638 /// ZNF638-IT1 / RFU, PANK3 / Fold change vs veh, PANK3 / RFU, SH3YL1 / Fold change vs veh, SH3YL1 / RFU, ZEB2 / Fold change vs veh, ZEB2 / RFU, NRIP1 / Fold change vs veh, NRIP1 / RFU, PTTG1IP / Fold change vs veh, PTTG1IP / RFU, CAPN2 / Fold change vs veh, CAPN2 / RFU, MED14 / Fold change vs veh, MED14 / RFU, SNORA58 / Fold change vs veh, SNORA58 / RFU, C1orf63 / Fold change vs veh, C1orf63 / RFU, LRRFIP1 / Fold change vs veh, LRRFIP1 / RFU, NDUFAF7 / Fold change vs veh, NDUFAF7 / RFU, SLC12A2 / Fold change vs veh, SLC12A2 / RFU, IBTK / Fold change vs veh, IBTK / RFU, ESF1 / Fold change vs veh, ESF1 / Fold change vs veh, TMEM50B / RFU, TAOK1 / Fold change vs veh, TAOK1 / RFU, ACBD3 / Fold change vs veh, ACBD3 / RFU, TMA16 / Fold change vs veh, TMA16 / RFU, RWDD3 / Fold change vs veh, RWDD3 / RFU, BCAT1 / Fold change vs veh, BCAT1 / RFU, EDEM3 / Fold change vs veh, EDEM3 / RFU, TMEM33 / Fold change vs veh, TMEM33 / RFU, WDR75 / Fold change vs veh, WDR75 / RFU, AHCTF1 / Fold change vs veh, AHCTF1 / RFU, TFRC / Fold change vs veh, TFRC / RFU, ZDHHC17 / Fold change vs veh, ZDHHC17 / RFU, NOM1 / Fold change vs veh, NOM1 / RFU, ARL8B / Fold change vs veh, ARL8B / RFU, ZBTB11 / Fold change vs veh, ZBTB11 / RFU, TAMM41 / Fold change vs veh, TAMM41 / RFU, KIAA1704 /// LOC100996395 / Fold change vs veh, KIAA1704 /// LOC100996395 / RFU, ING1 / Fold change vs veh, ING1 / RFU, TRMT61B / Fold change vs veh, TRMT61B / RFU, FUBP3 / Fold change vs veh, FUBP3 / RFU, TP53 / Fold change vs veh, TP53 / RFU, TNKS2 / Fold change vs veh, TNKS2 / RFU, ZFP14 / Fold change vs veh, ZFP14 / RFU, ACTR2 / Fold change vs veh, ACTR2 / RFU, PPP3R1 / Fold change vs veh, PPP3R1 / RFU, PIK3R1 / Fold change vs veh, PIK3R1 / RFU, HNRNPA1 / Fold change vs veh, HNRNPA1 / RFU, RNF170 / Fold change vs veh, RNF170 / RFU, ZNF28 / Fold change vs veh, ZNF28 / RFU, RNGTT / Fold change vs veh, RNGTT / RFU, OGT / Fold change vs veh, OGT / RFU, BRD1 / Fold change vs veh, BRD1 / RFU, MARS / Fold change vs veh, MARS / RFU, ZNF655 / Fold change vs veh, ZNF655 / RFU, FAHD1 / Fold change vs veh, FAHD1 / RFU, BDP1 / Fold change vs veh, BDP1 / RFU, LRRCC1 / Fold change vs veh, LRRCC1 / RFU, ARID1A / Fold change vs veh, ARID1A / RFU, ZNF146 / Fold change vs veh, ZNF146 / RFU, ZNF330 / Fold change vs veh, ZNF330 / RFU, GPN3 / Fold change vs veh, GPN3 / RFU, C9orf123 / Fold change vs veh, C9orf123 / RFU, N4BP2L2 / Fold change vs veh, N4BP2L2 / RFU, ARFIP1 / Fold change vs veh, ARFIP1 / RFU, FAM179B / Fold change vs veh, FAM179B / RFU, BCL10 / Fold change vs veh, BCL10 / RFU, UHRF1BP1L / Fold change vs veh, UHRF1BP1L / RFU, BET1 / Fold change vs veh, BET1 / RFU, CNOT2 / Fold change vs veh, CNOT2 / RFU, ZNF268 / Fold change vs veh, ZNF268 / Fold change vs veh, ZNF507 / RFU, DGCR2 / Fold change vs veh, DGCR2 / RFU, WDSUB1 / Fold change vs veh, WDSUB1 / Fold change vs veh, HSP90B1 /// MIR3652 / RFU, ADSS / Fold change vs veh, ADSS / RFU, GK / Fold change vs veh, GK / RFU, ZNF148 / Fold change vs veh, ZNF148 / RFU, TAF9 / Fold change vs veh, TAF9 / RFU, SLC1A5 / Fold change vs veh, SLC1A5 / RFU, SLMO2 / Fold change vs veh, SLMO2 / RFU, ABCC4 / Fold change vs veh, ABCC4 / RFU, LOC101060439 /// RAP1B / Fold change vs veh, LOC101060439 /// RAP1B / RFU, RFX7 / Fold change vs veh, RFX7 / RFU, GTPBP10 / Fold change vs veh, GTPBP10 / RFU, CNEP1R1 / Fold change vs veh, CNEP1R1 / RFU, BIVM-ERCC5 /// ERCC5 / Fold change vs veh, BIVM-ERCC5 /// ERCC5 / RFU, ILF3 / Fold change vs veh, ILF3 / RFU 11762660_at / Fold change /veh 11762660_at / RFU VCAN (11757783_s_at) / Fold change /veh VCAN (11757783_s_at) / RFU DDX43 (11728927_at) / Fold change /veh DDX43 (11728927_at) / RFU KRT8 (11758188_x_at) / Fold change /veh KRT8 (11758188_x_at) / RFU NKD1 (11759106_at) / Fold change /veh NKD1 (11759106_at) / RFU SRD5A1 (11742802_a_at) / Fold change /veh SRD5A1 (11742802_a_at) / RFU TPSAB1 /// TPSB2 (11721975_s_at) / Fold change /veh TPSAB1 /// TPSB2 (11721975_s_at) / RFU GSTM3 (11746129_a_at) / Fold change /veh GSTM3 (11746129_a_at) / RFU IL23R (11737362_x_at) / Fold change /veh IL23R (11737362_x_at) / RFU TMEM51 (11727254_a_at) / Fold change /veh TMEM51 (11727254_a_at) / RFU PIWIL2 (11732686_x_at) / Fold change /veh PIWIL2 (11732686_x_at) / RFU ORM1 (11744905_x_at) / Fold change /veh ORM1 (11744905_x_at) / RFU CCDC152 (11743942_at) / Fold change /veh CCDC152 (11743942_at) / RFU ECM1 (11717891_a_at) / Fold change /veh ECM1 (11717891_a_at) / RFU IL23R (11748794_a_at) / Fold change /veh IL23R (11748794_a_at) / RFU TNFAIP8L3 (11732012_x_at) / Fold change /veh TNFAIP8L3 (11732012_x_at) / RFU MBOAT4 (11741988_at) / Fold change /veh MBOAT4 (11741988_at) / RFU 11764193_at / Fold change /veh 11764193_at / RFU TMEM53 (11763286_at) / Fold change /veh TMEM53 (11763286_at) / RFU MAGEB2 (11727129_at) / Fold change /veh MAGEB2 (11727129_at) / RFU TMEM200A (11744735_a_at) / Fold change /veh TMEM200A (11744735_a_at) / RFU CCDC152 (11751479_a_at) / Fold change /veh CCDC152 (11751479_a_at) / RFU FAM211A (11726209_a_at) / Fold change /veh FAM211A (11726209_a_at) / RFU RGS16 (11746705_a_at) / Fold change /veh RGS16 (11746705_a_at) / RFU VCAN (11755009_s_at) / Fold change /veh VCAN (11755009_s_at) / RFU RHOB (11743442_s_at) / Fold change /veh RHOB (11743442_s_at) / RFU RGS16 (11720943_a_at) / Fold change /veh RGS16 (11720943_a_at) / RFU RGS16 (11720944_at) / Fold change /veh RGS16 (11720944_at) / RFU, VPS4B / Fold change vs veh, VPS4B / RFU, CREB1 / Fold change vs veh, CREB1 / RFU, DNAJC13 / Fold change vs veh, DNAJC13 / RFU, GNAQ / Fold change vs veh, GNAQ / RFU, CDK5R1 / Fold change vs veh, CDK5R1 / RFU, ZRANB3 / Fold change vs veh, ZRANB3 / RFU, CUL4A / Fold change vs veh, CUL4A / RFU, CCNY / Fold change vs veh, CCNY / RFU, UFL1 / Fold change vs veh, UFL1 / RFU, COG3 / Fold change vs veh, COG3 / RFU, DIAPH2 / Fold change vs veh, DIAPH2 / RFU, SKA2 / Fold change vs veh, SKA2 / RFU, AFF3 / Fold change vs veh, AFF3 / RFU, LMF1 / Fold change vs veh, LMF1 / RFU, IPO11 / Fold change vs veh, IPO11 / RFU, DFFB / Fold change vs veh, DFFB / RFU, FOXP1 / Fold change vs veh, FOXP1 / RFU, CARD8 / Fold change vs veh, CARD8 / RFU, STRN3 / Fold change vs veh, STRN3 / RFU, ADK / Fold change vs veh, ADK / RFU, RASSF2 / Fold change vs veh, RASSF2 / RFU, WIPF1 / Fold change vs veh, WIPF1 / RFU, LARP1B / Fold change vs veh, LARP1B / RFU, RASA1 / Fold change vs veh, RASA1 / RFU, RB1 / Fold change vs veh, RB1 / RFU, PPFIA1 / Fold change vs veh, PPFIA1 / RFU, MAT2A / Fold change vs veh, MAT2A / RFU, CCT5 / Fold change vs veh, CCT5 / RFU, WDR92 / Fold change vs veh, WDR92 / RFU, CUX1 / Fold change vs veh, CUX1 / RFU, TTC7A / Fold change vs veh, TTC7A / RFU, TMEM135 / Fold change vs veh, TMEM135 / RFU, DEPTOR / Fold change vs veh, DEPTOR / RFU, CPM / Fold change vs veh, CPM / RFU, DNAJB6 / Fold change vs veh, DNAJB6 / RFU, CACNA2D3 / Fold change vs veh, CACNA2D3 / RFU, DTX4 / Fold change vs veh, DTX4 / RFU, TFCP2 / Fold change vs veh, TFCP2 / RFU, GMCL1 /// GMCL1P1 / Fold change vs veh, GMCL1 /// GMCL1P1 / RFU, AEBP2 / Fold change vs veh, AEBP2 / RFU, SNHG1 /// SNORD22 /// SNORD25 /// SNORD26 /// SNORD27 /// SNORD28 /// SNORD29 /// SNORD31 / Fold change vs veh, SNHG1 /// SNORD22 /// SNORD25 /// SNORD26 /// SNORD27 /// SNORD28 /// SNORD29 /// SNORD31 / Fold change (Aza/veh), C12orf56 (ProbeSet 11735607_a_at) / Fold change (ACY-1035/veh), C12orf56 (ProbeSet 11735607_a_at) / Fold change (Aza/veh), FGFR1OP (ProbeSet 11751329_s_at) / Fold change (ACY-1035/veh), FGFR1OP (ProbeSet 11751329_s_at) / Fold change (Aza/veh), VPS36 (ProbeSet 11739960_a_at) / Fold change (ACY-1035/veh), VPS36 (ProbeSet 11739960_a_at) / RFU SYPL1 (11715823_x_at) / Fold change /veh SYPL1 (11715823_x_at) / RFU IGFBP7 (11715501_s_at) / Fold change /veh IGFBP7 (11715501_s_at) / RFU REEP3 (11722064_at) / Fold change /veh REEP3 (11722064_at) / RFU IGLL1 (11728026_x_at) / Fold change /veh IGLL1 (11728026_x_at): dose or concentration left out as unconfirmed
Settings: MV-4-11 cells, 48 hours

## Nc1ccc(-c2cccs2)cc1NC(=O)c1ccc2c(c1)cc(C1CC1)n2CCN1CCOCC1 [ACY-1035]
  Fold change /veh OR2T12 /// OR2T33 /// OR2T8 (11738714_s_at): 1.06
